Source: patent publication US20240174634A1, “Aldehyde Dehydrogenase Inhibitors and Their Therapeutic Use” (priority 2020, published 2024)

Experiment: In vivo pharmacokinetics in female BALB/c mice
Parameters: species or system mouse
Settings: for AUC / Cmax: po, 5 mg/kg orally by gavage
Protocol: All procedures involving animals were performed in accordance with national Home Office regulations under the Animals (Scientific Procedures) Act 1986 and within guidelines set out by the Institute's Animal Ethics Committee and the United Kingdom Coordinating Committee for Cancer Research's ad hoc Committee on the Welfare of Animals in Experimental Neoplasia. Female BALB/c mice (Charles River Laboratories) at 6 weeks of age were used for the PK analyses. The mice were dosed orally by gavage (5 mg/kg in DMSO:water 1:19 v:v; n=6) or intravenously in the tail vein (1 mg/kg in DMSO:Tween20:saline 10:1:89 v:v:v; n=6). Blood samples (˜20 μL) were taken from the tail vein from each group of mice (2 groups, 3 mice/group) alternated at 5, 15 and 30 minutes, 1, 2, 4 and 6 and 8 hours after dosing. For clarity, group 1 was bled at 5 minutes, 30 minutes, 2 hours and 6 hours; group 2 was bled at 15 minutes, 1 hour, 4 hours and 8 hours. Plasma samples were snap frozen in liquid nitrogen and then stored at −80° C. prior to analysis.
Test compound solutions (1 mg/mL in DMSO) were used to make stock Standard Curve (SC) and Quality Control (QC) solutions at appropriate concentrations. Blank plasma was spiked with stock solutions to produce a 9-point standard curve ranging from 1.5-10,000 […]; with 2 QC concentrations within this range and where the DMSO concentration was 10% of the plasma volume. Plasma PK samples, Standards and QC's were added to individual Eppendorf tubes and DMSO (10% of plasma volume) was added to the plasma PK samples. SC, QC and plasma samples were extracted with methanol (100 μL) containing internal standard. Following protein precipitation, the samples were centrifuged for 10 minutes in a refrigerated centrifuge (4° C.) at 14000 rpm. The supernatants were removed to a 96-well plate and centrifuged for a further 10 minutes in a refrigerated centrifuge (4° C.) at 3700 rpm. Samples were analysed by Liquid Chromatography Mass Spectrometry (LC-MS/MS) for the compound plasma concentrations. Non-compartmental analysis was performed on plasma concentration data using the Excel macro PK Solver 2.0.

Row | Structure (SMILES) | F (5 mg/kg po vs 1 mg/kg iv) [%] | clearance (mouse, plasma, iv, 1 mg/kg intravenously, read-out: Cl iv) [mL/min/kg] | AUC (mouse, plasma) [µM·h] | Cmax (mouse, plasma) [µM]
1 | O=C1CCc2cc(NC(=O)c3scnc3-c3cccc(F)c3)ccc2N1 [ALDHI-1003, 4-(3-fluorophenyl)-N-(2-oxo-3,4-dihydro-1H-quinolin-6-yl)thiazole-5-carboxamide] | 100 | 22.1 | 13.3 | 6.1
2 | CN(CCOc1ccc2c(c1)CCC(=O)N2)C(=O)c1cccc(F)c1 [ALDHI-3008, 3-fluoro-N-methyl-N-[2-[(2-oxo-3,4-dihydro-1H-quinolin-6-yl)oxy]ethyl]benzamide] |  |  | 1.5 | 1.8
